Laboratory results published in patent publication US10000558B2, “Use of annexin A3 as a diagnostic and prognostic biomarker and therapeutic target for treating hepatocellular carcinoma” (The University of Hong Kong, priority 2013, dated 2018).
Where “and” joins values, the source holds several entries; their conditions need not be identical. Identical values can stand only once.

Tests used:
Huh7 cells = test: Apoptosis analysis by Annexin V-PI flow cytometry; format: cell-based, human; conditions: for 5-fluorouracil-induced apoptosis: 5-fluorouracil 150 µg/ml for 48 hrs; for STS-induced apoptosis: STS 1 μg/ml for 6 hrs; for Cisplatin-induced apoptosis: cisplatin 5 μg/ml for 48 hrs
Experimental: Cells were treated with cisplatin (5 μg/ml) or 5-fluorouracil ([…]) for 48 hrs, apoptosis inducer staurosporin (STS, 1 μg/ml) for 6 hrs. Cells would then be subsequently harvested and stained in binding buffer, propidium iodide (PI) and FITC-conjugated Annexin V as provided by the Annexin-V FLUOS Staining Kit (Roche Diagnostics) according to manufacturer's instructions. Analysis was determined by a FACS Canto II (BD Biosciences) and FlowJo software (Tree Star, Inc.).
The effect of ANXA3 on resistance to apoptosis and chemotherapy was investigated by Annexin V-PI staining followed by flow cytometry analysis. To investigate whether ANXA3 expression in HCC confers enhanced resistance to chemotherapy and apoptosis, Huh7 cells with or without ANXA3 repressed were treated with the apoptosis inducer staurosporin (STS) or chemotherapeutic reagents, 5-fluorouracil (5-FU) or cisplatin, in vitro and analyzed for apoptotic/necrotic cells by flow cytometry. […] Upon stable ANXA3 knockdown in Huh7 and PLC8024 HCC cells, HCC cells became less resistant to the apoptosis inducer, staurosporin (STS) and chemotherapy, 5-fluorouracil and cisplatin, resulting in a significant increase in apoptotic/necrotic cells.

[1] = tested on: HCC Huh7 cells or HCC primary cells; test: Subcutaneous HCC xenograft treatment in NOD-SCID mice; format: in vivo
Experimental: Immunodeficient NOD-SCID mice transplanted subcutaneously with HCC Huh7 cells or HCC primary cells were injected with PBS, mouse IgG control ANXA3 mAb, cisplatin or a combination of ANXA3 mAb and cisplatin over a period of 3 weeks (FIGS. 4A, B and C).

[2] = Huh7 ANXA3 repressed clones (two clones, values not assigned)

SMILES: O=c1[nH]cc(F)c(=O)[nH]1 [5-fluorouracil]
- 5-fluorouracil-induced apoptosis (Huh7 cells; [2]): 39.4% and 55.51%
- 5-fluorouracil-induced apoptosis (Huh7 cells; Huh7 control (NTC) cells): 30.1%

SMILES: CN[C@@H]1C[C@H]2O[C@@](C)([C@@H]1OC)n1c3ccccc3c3c4c(c5c6ccccc6n2c5c31)C(=O)NC4 [STS, staurosporin]
- STS-induced apoptosis (Huh7 cells; [2]): 53.58% and 52.3%
- STS-induced apoptosis (Huh7 cells; Huh7 control (NTC) cells): 43.72%

SMILES: N.N.[Cl][Pt][Cl] [cisplatin, reference compound]
- tumor formation after serial transplantation of residual tumor into secondary mouse recipients ([1]; FIG. 4D): resulted in tumor formation and recurrence
- tumor growth / tumor volume ([1]; NOD-SCID mice, subcutaneous transplant, injections over 3 weeks, FIG. 4A, B): marked reduction in tumor volume
- CD133+ liver CSC subset in tumor ([1]; flow cytometric analysis of residual tumors, FIG. 4C): enriched
- Cisplatin-induced apoptosis (Huh7 cells; [2]): 38.4% and 41.1%
- Cisplatin-induced apoptosis (Huh7 cells; Huh7 control (NTC) cells): 26.73%
